# System: CHO-K1 cells
# Assay: MTT assay, cytotoxicity against CHO-K1 cells
# Format: cell-based, hamster
# Conditions: 24 hours, FIG. 4, read-out: concentration at which the viability of CHO-K1 cells became about 50%
# Experimental: The cell viability was analyzed by a 3-(4,5-dimethylthiazol)-2,5-diphenyltetrazolium bromide (MTT) assay method. After CHO-K1 cells at 2×10^4 cells/well were cultured in a 48-well plate and then serum starved for 4 hours, VCD was treated at various concentrations or the respective medicines were pre-treated at 100 μg/ml, VCD (1.5 mM) was sequentially treated, and the cells were cultured under the conditions of 37° C. and 5% CO2 for 24 hours. After 30 μl of an MTT solution (2 mg/ml) per well was added thereto and the resulting mixture was allowed to react in an incubator at 37° C. and 5% CO2 for 3 hours, the MTT solution and the culture solution were completely removed, and then formazan crystallites formed in the cells were dissolved by using 150 μl of dimethyl sulfoxide (DMSO, Sigma-Aldrich, USA), and the absorbance thereof was measured at 595 nm by using an ELISA plate reader (DYNEX, Opsys MR, USA). The cell viability for the control was expressed as a percentage.
# The cytotoxicity of VCD against CHO-K1 cells was evaluated by the MTT assay according to Example 1-4, and as a result, the concentration (1.5 mM) at which the viability of CHO-K1 cells by VCD became about 50% was determined (see FIG. 4), and the result was applied to the following experiment. […]
compound,measurement,value
"C1CC2OC2CC1C1CO1 (stereo not shown) [VCD, 4-vinylcyclohexene diepoxide]",IC50,1500 µM

# Reference: patent US10835564B2, “Composition for preventing and treating premature ovarian failure, containing Evodia rutaecarpa bentham extract having protective activity against ovotoxicity” (DONGGUK UNIVERSITY GYEONGJU CAMPUS INDUSTRY-ACADEMY …, priority 2015, dated 2020)
